Assay results reported in patent US4185010A, “Nonapeptides” (American Home Products Corporation, priority 1978, dated 1980).
Where a SMILES comes first, the peptide text is derived from it. Bridges are numbered along the chain shown (N, C = ends). [ ]: non-standard residue; d: D form. Abu = CC[C@H](N)C(=O)O

Legend:
Type in all cases: in vivo
growth hormone (GH) = experiment: Arginine-stimulated hormone release in Nembutal-anesthetized rats, growth hormone by radioimmunoassay; conditions: albino male rats, 1,000 μg/kg subcutaneous, blood 15 min after dose (5 min after arginine); control 454 ± 106
Procedure: (§1) Albino male rate are administered Nembutal intraperitoneally at a dose of 50 milligrams per kilogram. Fifteen minutes later a subcutaneous injection of the test compound or physiological saline (control) is administered. Ten minutes later 0.5 milliliters of arginine (300 milligrams per milliliter, pH 7.2) is injected into the heart. Five minutes after receipt of the arginine the rats are decapitated and blood is collected into trasylol-EDTA. An appropriate aliquot is assayed for growth hormone (GH), insulin, and glucagon by radioimmunoassay.

glucagon = experiment: Arginine-stimulated hormone release in Nembutal-anesthetized rats, glucagon by radioimmunoassay
Procedure: as §1

insulin = experiment: Arginine-stimulated hormone release in Nembutal-anesthetized rats, insulin by radioimmunoassay; conditions: albino male rats, 1,000 μg/kg subcutaneous, blood 15 min after dose (5 min after arginine); control 269 ± 37
Procedure: as §1

**Q.** Which results are given for `CC[C@@H]1NC(=O)[C@H](CCCCN)NC(=O)[C@@H](Cc2c[nH]c3ccccc23)NC(=O)[C@H](Cc2ccccc2)NC(=O)[C@H](Cc2ccccc2)NC(=O)[C@H](Cc2c[nH]cn2)NC(=O)[C@@H](N)CSSC[C@@H](C(=O)O)NC(=O)[C@H](Cc2ccccc2)NC1=O` [Example 2, L-Cysteinyl-L-histidyl-L-phenylalanyl-L-phenylalanyl-D-tryptophyl-L-lysyl-L-α-aminobutyryl-L-phenylalanyl-L-cysteine cyclic (1-9) disulfide] (H-CHFF[dW]K[Abu]FC-OH; disulfide 1-9)?
**A.** GH (growth hormone (GH)): 413 ± 98 ng/mL; GLUN (glucagon; albino male rats, 1,000 μg/kg subcutaneous, blood 15 min after dose (5 min after arginine), control 60 ± 10, p<0.05): 31 ± 5 pg/mL; selective inhibition of glucagon release versus growth hormone and insulin levels (glucagon; without materially altering blood serum growth hormone and insulin levels): selectively inhibit glucagon release; INS (insulin): 262 ± 39 μU/ml
